# Data reported in paper PMC3881423 (Journal of medicinal chemistry, 2013).
# Key:
# [1] = molecular target: purified LSD1 recombinant (Homo sapiens, UniProt O60341)
# [2] = molecular target: MAO-A (Homo sapiens, UniProt P21397)
# [3] = molecular target: MAO-B (Homo sapiens, UniProt P27338)
# [4] = molecular target: T1, LSD1 (Homo sapiens, UniProt O60341); assay: Microscale thermophoresis; assay type: binding
# [5] = molecular target: T1, LSD1; conditions: dialyzed against hepes buffer 4°C 24 h
# [6] = tested on: MGC-803 cells; conditions: MGC-803, 0.25 μM
# [7] = molecular target: LSD1-snai1 complex in MGC-803 cells (Homo sapiens, UniProt O60341); conditions: MGC-803, 48h; 2-PCPA 100, 250μM
# [8] = tested on: MGC-803 cells; conditions: MGC-803, 0.02 μM, 48 h
# [9] = molecular target: T1, LSD1
# [10] = molecular target: T1, LSD1; conditions: monitored at 468nm; data not shown
# MAO-A, sequence (P21397 whole entry, species assumed): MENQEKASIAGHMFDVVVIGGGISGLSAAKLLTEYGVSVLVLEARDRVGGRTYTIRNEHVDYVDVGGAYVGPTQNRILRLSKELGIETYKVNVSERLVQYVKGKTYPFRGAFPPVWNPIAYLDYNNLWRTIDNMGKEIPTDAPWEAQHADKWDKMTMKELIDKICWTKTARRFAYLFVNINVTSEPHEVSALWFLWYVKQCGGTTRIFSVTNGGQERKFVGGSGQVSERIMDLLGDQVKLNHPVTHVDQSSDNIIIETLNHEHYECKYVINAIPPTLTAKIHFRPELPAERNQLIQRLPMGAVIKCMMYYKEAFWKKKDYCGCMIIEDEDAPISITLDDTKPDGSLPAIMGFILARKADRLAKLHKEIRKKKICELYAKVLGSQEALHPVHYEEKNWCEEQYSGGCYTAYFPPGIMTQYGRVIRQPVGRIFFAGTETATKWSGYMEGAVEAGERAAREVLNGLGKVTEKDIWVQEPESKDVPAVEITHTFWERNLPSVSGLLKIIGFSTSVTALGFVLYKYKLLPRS
# MAO-B, sequence (P27338 whole entry, species assumed): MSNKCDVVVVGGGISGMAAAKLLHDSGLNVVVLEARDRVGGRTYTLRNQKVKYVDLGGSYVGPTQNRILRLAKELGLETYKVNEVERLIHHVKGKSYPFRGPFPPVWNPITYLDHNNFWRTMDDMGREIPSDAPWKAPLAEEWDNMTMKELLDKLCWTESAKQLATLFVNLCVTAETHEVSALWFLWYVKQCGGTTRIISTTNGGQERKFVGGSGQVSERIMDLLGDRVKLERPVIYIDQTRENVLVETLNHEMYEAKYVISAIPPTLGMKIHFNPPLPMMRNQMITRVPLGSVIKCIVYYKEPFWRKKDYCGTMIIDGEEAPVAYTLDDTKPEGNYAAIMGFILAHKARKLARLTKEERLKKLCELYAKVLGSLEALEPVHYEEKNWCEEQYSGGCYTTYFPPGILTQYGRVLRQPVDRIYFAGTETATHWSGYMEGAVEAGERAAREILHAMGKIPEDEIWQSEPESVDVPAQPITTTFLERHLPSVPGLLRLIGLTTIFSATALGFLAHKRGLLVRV
compound,measurement,setting,value
CC(C)(C)OC(=O)N1CCN(C(=S)SCc2cn(Cc3nc4ccccc4[nH]3)nn2)CC1 [Compound 50],LSD1 inhibitory activity (in words),[1],complete loss of activity or very weak binding affinity
CC(C)(C)OC(=O)N1CCN(C(=S)SCc2cn(Cc3ccc4ccccc4c3)nn2)CC1 [Compound 48],LSD1 inhibitory activity (in words),[1],complete loss of activity or very weak binding affinity
Cc1ccccc1Cn1cc(CSC(=S)N2CCN(C(=O)OC(C)(C)C)CC2)nn1 [Compound 29],LSD1 inhibitory activity (in words),[1],without any detectable activity
"CC(C)(C)OC(=O)N1CCN(C(=S)SCc2cn(Cc3ccccc3F)nn2)CC1 [Compound 22, tert Butyl 4-(((1-(2-fluorobenzyl)-1H-1,2,3-triazol-4-yl)methylthio)carbonothioyl)-piperazine-1-carboxylate]",effect on MAO-A activity (in words),[2],no significant effects
same,effect on MAO-B activity (in words),[3],no significant effects
"Cc1cc2nc3c(=O)[nH]c(=O)nc-3n(C[C@H](O)[C@H](O)[C@H](O)COP(=O)(O)OP(=O)(O)OC[C@H]3O[C@@H](n4cnc5c(N)ncnc54)[C@H](O)[C@@H]3O)c2cc1C [FAD, flavin adenine dinucleotide]",Kd,[4],182 nM
CC(C)(C)OC(=O)N1CCN(C(=S)SCc2cn(Cc3cc(=O)[nH]c4ccccc34)nn2)CC1 [Compound 49],LSD1 inhibitory activity (in words),[1],complete loss of activity or very weak binding affinity
"Cc1ccc(Cn2cc(CSC(=S)N3CCN(C(=O)OC(C)(C)C)CC3)nn2)cc1 [Compound 26, tert Butyl 4-(((1-(4-methylbenzyl)-1H-1,2,3-triazol-4-yl)methylthio)carbonothioyl)-piperazine-1-carboxylate]",LSD1 activity after dialysis,[5],the activity can be restored
same,cell proliferation,[6],cannot inhibit the cell proliferation
same,effect on MAO-A activity (in words),[2],no significant effects
same,effect on MAO-B activity (in words),[3],no significant effects
same,binding of LSD1 to snai1,[7],significantly decreased
same,cell migration,[8],significantly inhibited
same,mode of inhibition over LSD1 substrate H3K4me2,"[9]; FAD 2.5 μM, peptide 10 to 80 μM",non-competitive inhibitor
same,mode of inhibition over LSD1 cofactor FAD,"[9]; peptide 25 μM, FAD 0.6 to 9.0 μM",competitive inhibitor
same,amount of FAD in the dialysis tube after dialysis,[10],much less than that in control group
CC(C)(C)OC(=O)N1CCN(C(=S)SCc2cn(CCOc3cc(=O)oc4ccccc34)nn2)CC1 [Compound 47],LSD1 inhibitory activity (in words),[1],complete loss of activity or very weak binding affinity
CC(C)(C)OC(=O)N1CCN(C(=S)SCc2cn(CC3=CC(=O)OC3)nn2)CC1 [Compound 51],LSD1 inhibitory activity (in words),[1],complete loss of activity or very weak binding affinity
